The structures appear in SMILES notation. Values joined by “and” are separate entries in the source; they are usually repeats but may differ in a detail not shown here. Equal entries are not always repeated. Some results are limits rather than exact numbers.

The target in series [1] is T1, MALT1 (Homo sapiens, UniProt Q9UDY8).
T1 sequence (Q9UDY8 1-824): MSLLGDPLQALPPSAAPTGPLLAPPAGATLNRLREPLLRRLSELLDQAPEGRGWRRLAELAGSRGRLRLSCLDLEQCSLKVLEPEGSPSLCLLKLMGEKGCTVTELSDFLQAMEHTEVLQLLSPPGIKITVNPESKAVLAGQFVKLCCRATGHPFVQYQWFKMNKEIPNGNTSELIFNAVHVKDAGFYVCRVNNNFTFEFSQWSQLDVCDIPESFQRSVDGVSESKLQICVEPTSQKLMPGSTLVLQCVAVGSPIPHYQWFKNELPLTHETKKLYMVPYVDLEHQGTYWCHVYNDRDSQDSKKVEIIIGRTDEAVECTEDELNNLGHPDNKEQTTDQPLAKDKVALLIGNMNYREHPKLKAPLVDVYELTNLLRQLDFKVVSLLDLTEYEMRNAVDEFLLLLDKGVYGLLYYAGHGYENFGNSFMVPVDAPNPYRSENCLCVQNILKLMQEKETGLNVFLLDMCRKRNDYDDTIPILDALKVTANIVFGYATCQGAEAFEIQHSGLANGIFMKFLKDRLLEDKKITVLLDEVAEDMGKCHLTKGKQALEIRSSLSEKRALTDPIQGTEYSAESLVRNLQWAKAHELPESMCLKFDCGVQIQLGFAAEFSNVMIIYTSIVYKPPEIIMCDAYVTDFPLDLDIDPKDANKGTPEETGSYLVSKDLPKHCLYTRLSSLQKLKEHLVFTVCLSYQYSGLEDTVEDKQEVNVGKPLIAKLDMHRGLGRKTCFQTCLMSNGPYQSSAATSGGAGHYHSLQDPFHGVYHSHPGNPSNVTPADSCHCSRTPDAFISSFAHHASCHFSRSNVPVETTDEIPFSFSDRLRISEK
Put plainly: MALT1 biochemical assay. The settings on record: at 5 μM.

For another series, the target named is T2, MALT1 protease (Homo sapiens, UniProt Q9UDY8).
T2 sequence (Q9UDY8 1-824): T1 sequence (Q9UDY8 1-824)
It counts as cell-based. The settings on record: Cell (Glo), GloSensor reporter, PMA/IO activated Raji cells.

Series [2] has as its system RelB cleavage (MALT1 protease activity) in OCI-Ly3 cells. Nature of the series: Inhibition of RelB cleavage in OCI-Ly3 cells by Western blot. It counts as cell-based. The following applies: at 20 μM. On the technique in general: A western blot detects proteins with antibodies after separation by electrophoresis.
Another series has as its system OCI-Ly3 cells. Put plainly: OCI-Ly3 cell proliferation assay.
The next series relates to trypsin. Nature of the series: Protease selectivity profiling, trypsin. It counts as biochemical. The settings on record: at 100 nM.
Series [3] can be described thus: Plasma levels upon IV and IP dosing in mice. It counts as in vivo.
For series [4], the target named is T1, MALT1. The settings on record: PD studies ref 20; cited from earlier work.
The subject of series [5] is ABC-DLBCL xenograft models. The following applies: two ABC-DLBCL xenograft models ref 20; cited from earlier work.
For a further series, the system named is calpain. Put plainly: Protease selectivity profiling, calpain. The following applies: at 100 nM. It counts as biochemical.
For another series, the target named is cathepsin B (Homo sapiens, UniProt P07858). Nature of the series: Protease selectivity profiling, cathepsin B. It counts as biochemical. The settings on record: at 100 nM.
For a further series, the target named is cathepsin S (Homo sapiens, UniProt P25774). Put plainly: Protease selectivity profiling, cathepsin S. The settings on record: at 100 nM. It counts as biochemical.
Series [6] has as its system panel of 26 proteases, primarily caspases and cathepsins. Nature of the series: Selectivity panel of 26 proteases. It counts as biochemical. The following applies: profiling at lower concentrations.

Sequence of cathepsin S (P25774 115-331, species assumed): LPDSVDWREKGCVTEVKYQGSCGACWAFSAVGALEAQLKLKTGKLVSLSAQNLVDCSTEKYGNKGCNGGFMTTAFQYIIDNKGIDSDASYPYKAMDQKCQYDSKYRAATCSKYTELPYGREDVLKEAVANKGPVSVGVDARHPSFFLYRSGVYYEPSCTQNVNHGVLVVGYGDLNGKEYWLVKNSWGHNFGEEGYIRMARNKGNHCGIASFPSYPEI

Broadly, the IC50 is the concentration needed to halve the response being measured. A high value points to weaker potency. For `CCC(=O)[C@H](CCCNC(=N)N)NC(=O)[C@@H]1CCCN1C(=O)[C@@H](NC(=O)[C@H](CC(C)C)NC(=O)OCc1ccccc1)C(C)C` [Compound 2], on MALT1 [1], the “activity in the biochemical assay” value was “no activity”. On MALT1 protease, this compound yielded an IC50 of more than 20 µM. For the same compound, in series [2], the “inhibition of RelB cleavage” value is given as “no effects”. In addition, in the series with OCI-Ly3 cells, the “activity in the cell (proliferation) assay, in words” value is given as “no activity”.
Regarding `CC(C)[C@H](NC(=O)c1ccc(Br)cc1)C(=O)N1CCC[C@H]1C(=O)N[C@@H](CCCNC(=N)N)C(=O)CF` [Compound 22], at MALT1 protease, the IC50 was 0.071 µM and 0.07 µM. In addition, in the series with trypsin, the potency against trypsin is more than 80%. The plasma levels entry in series [3] is reported as “moderate plasma levels for several hours”. The “in vivo inhibition of MALT1 activity” value on MALT1 [4] is reported as “in vivo inhibition of MALT1 activity”. In [5], the “effects on tumor growth” value is reported as “moderate effects on tumor growth”.
As for `CC(C)[C@H](NC(=O)c1ccc(Br)cc1)C(=O)N[C@@H](CO)C(=O)N[C@@H](CCCNC(=N)N)C(=O)CF` [Compound 44], the activity against calpain result in the series on calpain is reported as “active”. Besides, the “activity against cathepsin B” value at cathepsin B is on record as “active”. Further, the “activity against cathepsin S” value at cathepsin S is reported as “active”.
At MALT1 protease, `CC(C)[C@H](NC(=O)c1ccc(Br)cc1)C(=O)N1CCCC[C@H]1C(=O)N[C@@H](CCCNC(=N)N)C(=O)CF` [Compound 46] had an IC50 of 0.327 µM. For the same compound, the “selectivity in protease panel” value in series [6] was “the most selective compound”. Further, at cathepsin S, the “activity against cathepsin S” value is recorded as “highest activity”.

(Values after article PMC12883167 (Bioorganic & medicinal chemistry letters, 2019).)
